Reference: patent publication US20130345419A1, “AZOLE DERIVATIVE” (TAISHO PHARMACEUTICAL CO., LTD., priority 2011, published 2013)
pIC50: −log10 of the molar value.

System: proliferating cell nuclear antigen (PCNA)
Experiment: Test 6: anagen induction stimulating effect in shaven mouse model, skin PCNA by ELISA
Format: in vivo
Settings: 5% (w/v) in 80% ethanol, 200 μL once daily for 2 days, skin sampled about 4 hours after second administration, C57BL mice
Procedure: (Test 6) Test for Measuring Anagen Induction Stimulating Effect in Shave Mouse Model
The anagen induction stimulating effect of a compound was measured by the following method with the quantity of skin PCNA being used as an index.
C57BL mice (female, ca. 7-wk old) were shaven on the back and a base (80% ethanol) or a solution prepared by dissolving 5% (w/v) of Compound 40, 52, 59, 61, 63, 64 or 66 in this base was administered by applying them to the shaven area in 200-μL portions once daily for 2 days starting 3 days after the shaving (each group consisting of 5 heads.) About 4 hours after the administration on the second day, the skin at the application site was sampled and homogenized in a buffer containing 50 mM Tris-HCl (pH 7.6), 150 mM NaCl, 1% NP-40, and a protease inhibitor. By a centrifugal separation procedure, a PCNA containing protein solution was prepared and the quantity of PCNA in the solution was measured with a PCNA-ELISA kit of Calbiochem, Inc.

Compound | quantity of skin PCNA versus base administered group | skin PCNA levels relative to base administered group
CC1(C)CC(C)(C)CC(O)(C(F)(F)C(=O)N2CCC[C@H]2c2cc(COc3ccccc3)on2)C1 [Compound 52, (S)-2,2-Difluoro-2-(1-hydroxy-3,3,5,5-tetramethylcyclohexyl)-1-(2-(5-(phenoxymethyl)isoxazol-3-yl)pyrrolidin-1-yl)ethanone] | increases in the quantity of skin PCNA | –
CC1(C)CC(C)(C)CC(O)(C(F)(F)C(=O)N2CCC[C@H]2c2cc(COc3cncnc3)on2)C1 [Compound 59] | increases in the quantity of skin PCNA | –
CC1(C)CC(C)(C)CC(O)(C(F)(F)C(=O)N2CCC[C@H]2c2cc(Cn3ccc(=O)nc3)on2)C1 [Compound 61, (S)-1-((3-(1-(2,2-Difluoro-2-(1-hydroxy-3,3,5,5-tetramethylcyclohexyl)acetyl)pyrrolidin-2-yl)isoxazol-5-yl)methyl)pyrimidin-4(1H)-one] | increases in the quantity of skin PCNA | –
CC1(C)CC(C)(C)CC(O)(C(F)(F)C(=O)N2CCC[C@H]2c2cc(COc3ccncn3)on2)C1 [Compound 63, (S)-2,2-Difluoro-2-(1-hydroxy-3,3,5,5-tetramethylcyclohexyl)-1-(2-(5-((pyrimidin-4-yloxy)methyl)isoxazol-3-yl)pyrrolidin-1-yl)ethanone] | increases in the quantity of skin PCNA | –
CC1(C)CC(C)(C)CC(O)(C(F)(F)C(=O)N2CCC[C@H]2c2cc(COc3cccc(F)c3)on2)C1 [Compound 64, (S)-2,2-Difluoro-1-(2-(5-((3-fluorophenoxy)methyl)isoxazol-3-yl)pyrrolidin-1-yl)-2-(1-hydroxy-3,3,5,5-tetramethylcyclohexyl)ethanone] | increases in the quantity of skin PCNA | –
CC1(C)CC(C)(C)CC(O)(C(F)(F)C(=O)N2CCC[C@H]2c2cc(Cn3ccc(=O)cc3)on2)C1 [Compound 66, (S)-1-((3-(1-(2,2-Difluoro-2-(1-hydroxy-3,3,5,5-tetramethylcyclohexyl)acetyl)pyrrolidin-2-yl)isoxazol-5-yl)methyl)pyridin-4(1H)-one] | – | approximately 1.4 times

Biological target: T1, human recombinant FKBP12 (Homo sapiens, UniProt P62942)
T1 construct: purchased Sigma F-5398
Experiment: Test 1: immunophilin FKBP12 rotamase (peptidylprolyl isomerase) inhibiting activity
Format: biochemical
Settings: 12 nM human recombinant FKBP12, substrate succinyl-Ala-Phe-Pro-Phe-paranitroanilide 48 μM, 4° C.; read-out: PKBP12 rotamase inhibiting activity IC50
Procedure: (Test 1) Test for Measuring Immunophilin FKBP12 Rotamase Activity
The rotamase (peptidylprolyl isomerase) inhibiting activity of each test compound was measured by a known method (Harding et al., Nature 341, 758-760, 1989; Holts et al., J. Am. Chem. Soc. 115, 9925-9938, 1993.) To be more specific, a plastic cuvette was charged with 35 mM HEPES (pH 7.8), 12 nM human recombinant FKBP12 (Sigma, F-5398), 0.4 mg/mL α-chymotrypsin, and a test compound dissolved in DMSO at varying concentrations (DMSO's final concentration was 0.1%.) Subsequently, 24 mM of the substrate peptide, succinyl-Ala-Phe-Pro-Phe-paranitroanilide, as dissolved in trifluoroethanol containing 500 mM of LiCl was added to give a final concentration of 48 μM, whereupon reaction started. The reaction was carried out at 4° C. and the change in absorbance at 390 nm accompanying the liberation of the paranitroaniline product was monitored. A calculated initial rate minus the corresponding value in the absence of the enzyme was used as an index of rotamase activity. The rotamase inhibiting activity of a test compound was expressed in relative values (%) with respect to the control value of rotamase activity in the absence of the compound, and the concentration of the compound at which it was capable of inhibiting rotamase activity by 50% was calculated as an IC50 value from its concentration response curve.

T1 sequence (P62942 whole entry): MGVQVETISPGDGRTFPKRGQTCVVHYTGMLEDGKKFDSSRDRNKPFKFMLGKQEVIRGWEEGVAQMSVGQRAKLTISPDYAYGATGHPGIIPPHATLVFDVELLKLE

Compound | pIC50
COc1ccc(OCc2cc([C@@H]3CCCN3S(=O)(=O)CC3CCCCC3)no2)cc1OC [Compound 43, (S)-3-(1-((Cyclohexylmethyl)sulfonyl)pyrrolidin-2-yl)-5-((3,4-dimethoxyphenoxy)methyl)isoxazole] | 6.83
CC1(C)CC(C)(C)CC(O)(C(F)(F)C(=O)N2CCC[C@H]2c2cc(CNS(=O)(=O)c3ccccc3)on2)C1 [Compound 45, (S)—N-((3-(1-(2,2-Difluoro-2-(1-hydroxy-3,3,5,5-tetramethylcyclohexyl)acetyl)pyrrolidin-2-yl)isoxazol-5-yl)methyl)benzenesulfonamide] | 7.00
CN(C)Cc1cc([C@@H]2CCCN2C(=O)C(F)(F)C2(O)CC(C)(C)CC(C)(C)C2)no1 [Compound 46, (S)-1-(2-(5-((Dimethylamino)methyl)isoxazol-3-yl)pyrrolidin-1-yl)-2,2-difluoro-2-(1-hydroxy-3,3,5,5-tetramethylcyclohexyl)ethanone] | 6.51
CC1(C)CC(C)(C)CC(O)(C(F)(F)C(=O)N2CCC[C@H]2c2cc(CNC(=O)Cc3ccccc3)on2)C1 [Compound 48] | 7.03
CC1(C)CC(C)(C)CC(O)(C(F)(F)C(=O)N2CCC[C@H]2c2cc(C(C)(C)O)on2)C1 [Compound 49] | 6.00 to 6.30
COc1ccc(CC(=O)NCc2cc([C@@H]3CCCN3C(=O)C(F)(F)C3(O)CC(C)(C)CC(C)(C)C3)no2)cc1OC [Compound 51] | 7.13
CC1(C)CC(C)(C)CC(O)(C(F)(F)C(=O)N2CCC[C@H]2c2cc(COc3ccccc3)on2)C1 [Compound 52, (S)-2,2-Difluoro-2-(1-hydroxy-3,3,5,5-tetramethylcyclohexyl)-1-(2-(5-(phenoxymethyl)isoxazol-3-yl)pyrrolidin-1-yl)ethanone] | 6.69
CC1(C)CC(C)(C)CC(O)(C(F)(F)C(=O)N2CCC[C@H]2c2cc(COc3ccnnc3)on2)C1 [Compound 53, (S)-2,2-Difluoro-2-(1-hydroxy-3,3,5,5-tetramethylcyclohexyl)-1-(2-(5-((pyridazin-4-yloxy)methyl)isoxazol-3-yl)pyrrolidin-1-yl)ethanone] | 7.07
CC1(C)CC(C)(C)CC(O)(C(F)(F)C(=O)N2CCC[C@H]2c2cc(COc3ccccn3)on2)C1 [Compound 54, (S)-2,2-Difluoro-2-(1-hydroxy-3,3,5,5-tetramethylcyclohexyl)-1-(2-(5-((pyridin-2-yloxy)methyl)isoxazol-3-yl)pyrrolidin-1-yl)ethanone] | 6.54
CC1(C)CC(C)(C)CC(O)(C(F)(F)C(=O)N2CCC[C@H]2c2cc(COc3cnccn3)on2)C1 [Compound 55, (S)-2,2-Difluoro-2-(1-hydroxy-3,3,5,5-tetramethylcyclohexyl)-1-(2-(5-((pyrazin-2-yloxy)methyl)isoxazol-3-yl)pyrrolidin-1-yl)ethanone] | 6.64
CC1(C)CC(C)(C)CC(O)(C(F)(F)C(=O)N2CCC[C@H]2c2cc(COc3cccnn3)on2)C1 [Compound 56, (S)-2,2-Difluoro-2-(1-hydroxy-3,3,5,5-tetramethylcyclohexyl)-1-(2-(5-((pyridazin-3-yloxy)methyl)isoxazol-3-yl)pyrrolidin-1-yl)ethanone] | 6.48
CC1(C)CC(C)(C)CC(O)(C(F)(F)C(=O)N2CCC[C@H]2c2cc(COc3ccncc3)on2)C1 [Compound 57, (S)-2,2-Difluoro-2-(1-hydroxy-3,3,5,5-tetramethylcyclohexyl)-1-(2-(5-((pyridin-4-yloxy)methyl)isoxazol-3-yl)pyrrolidin-1-yl)ethanone] | 7.10
CC1(C)CC(C)(C)CC(O)(C(F)(F)C(=O)N2CCC[C@H]2c2cc(COc3cncnc3)on2)C1 [Compound 59] | 6.91
CC1(C)CC(C)(C)CC(O)(C(F)(F)C(=O)N2CCC[C@H]2c2cc(Cn3ccccc3=O)on2)C1 [Compound 60, (S)-1-((3-(1-(2,2-Difluoro-2-(1-hydroxy-3,3,5,5-tetramethylcyclohexyl)acetyl)pyrrolidin-2-yl)isoxazol-5-yl)methyl)pyridin-2(1H)-one] | 6.42
CC1(C)CC(C)(C)CC(O)(C(F)(F)C(=O)N2CCC[C@H]2c2cc(Cn3cnccc3=O)on2)C1 [Compound 62, (S)-3-((3-(1-(2,2-Difluoro-2-(1-hydroxy-3,3,5,5-tetramethylcyclohexyl)acetyl)pyrrolidin-2-yl)isoxazol-5-yl)methyl)pyrimidin-4(3H)-one] | 6.68
CC1(C)CC(C)(C)CC(O)(C(F)(F)C(=O)N2CCC[C@H]2c2cc(COc3ccncn3)on2)C1 [Compound 63, (S)-2,2-Difluoro-2-(1-hydroxy-3,3,5,5-tetramethylcyclohexyl)-1-(2-(5-((pyrimidin-4-yloxy)methyl)isoxazol-3-yl)pyrrolidin-1-yl)ethanone] | 6.73
CC1(C)CC(C)(C)CC(O)(C(F)(F)C(=O)N2CCC[C@H]2c2cc(COc3cccc(F)c3)on2)C1 [Compound 64, (S)-2,2-Difluoro-1-(2-(5-((3-fluorophenoxy)methyl)isoxazol-3-yl)pyrrolidin-1-yl)-2-(1-hydroxy-3,3,5,5-tetramethylcyclohexyl)ethanone] | 6.74

Second part, the compound after the results:

pIC50 | Compound
6.82 | COc1ccc(OCc2cc([C@@H]3CCCN3C(=O)C(F)(F)C3(O)CC(C)(C)CC(C)(C)C3)no2)cn1 [Compound 41, (S)-2,2-Difluoro-2-(1-hydroxy-3,3,5,5-tetramethylcyclohexyl)-1-(2-(5-(((6-methoxypyridin-3-yl)oxy)methyl)isoxazol-3-yl)pyrrolidin-1-yl)ethanone]
6.35 | CC1(C)CC(C)(C)CC(O)(C(F)(F)C(=O)N2CCC[C@H]2c2cc(CN)on2)C1 [Compound 42, (S)-1-(2-(5-(Aminomethyl)isoxazol-3-yl)pyrrolidin-1-yl)-2,2-difluoro-2-(1-hydroxy-3,3,5,5-tetramethylcyclohexyl)ethanone]
6.78 | CC1(C)CC(C)(C)CC(O)(C(F)(F)C(=O)N2CCC[C@H]2c2cc(CNC(=O)c3ccccc3)on2)C1 [Compound 44, (S)—N-((3-(1-(2,2-Difluoro-2-(1-hydroxy-3,3,5,5-tetramethylcyclohexyl)acetyl)pyrrolidin-2-yl)isoxazol-5-yl)methyl)benzamide]
6.60 | CC1(C)CC(C)(C)CC(O)(C(F)(F)C(=O)N2CCC[C@H]2c2cc(CN3CCOCC3)on2)C1 [Compound 47]
6.93 | COc1ccc(C(=O)NCc2cc([C@@H]3CCCN3C(=O)C(F)(F)C3(O)CC(C)(C)CC(C)(C)C3)no2)cc1OC [Compound 50]
6.60 | CC1(C)CC(C)(C)CC(O)(C(F)(F)C(=O)N2CCC[C@H]2c2cc(COc3ncccn3)on2)C1 [Compound 58, (S)-2,2-Difluoro-2-(1-hydroxy-3,3,5,5-tetramethylcyclohexyl)-1-(2-(5-((pyrimidin-2-yloxy)methyl)isoxazol-3-yl)pyrrolidin-1-yl)ethanone]
6.82 | CC1(C)CC(C)(C)CC(O)(C(F)(F)C(=O)N2CCC[C@H]2c2cc(Cn3ccc(=O)nc3)on2)C1 [Compound 61, (S)-1-((3-(1-(2,2-Difluoro-2-(1-hydroxy-3,3,5,5-tetramethylcyclohexyl)acetyl)pyrrolidin-2-yl)isoxazol-5-yl)methyl)pyrimidin-4(1H)-one]
6.62 | Cc1ccc(OCc2cc([C@@H]3CCCN3C(=O)C(F)(F)C3(O)CC(C)(C)CC(C)(C)C3)no2)cc1 [Compound 65]
